Experiments:
[1] = target: TOP2A (topoisomerase IIα) (Homo sapiens, UniProt P11388); test: kDNA decatenation assay with recombinant enzyme; type: biochemical
[2] = target: TOP2B (topoisomerase IIβ) (Homo sapiens, UniProt Q02880); test: kDNA decatenation assay with recombinant enzyme; type: biochemical
Sequence of TOP2B (topoisomerase IIβ) (Q02880 2-1626): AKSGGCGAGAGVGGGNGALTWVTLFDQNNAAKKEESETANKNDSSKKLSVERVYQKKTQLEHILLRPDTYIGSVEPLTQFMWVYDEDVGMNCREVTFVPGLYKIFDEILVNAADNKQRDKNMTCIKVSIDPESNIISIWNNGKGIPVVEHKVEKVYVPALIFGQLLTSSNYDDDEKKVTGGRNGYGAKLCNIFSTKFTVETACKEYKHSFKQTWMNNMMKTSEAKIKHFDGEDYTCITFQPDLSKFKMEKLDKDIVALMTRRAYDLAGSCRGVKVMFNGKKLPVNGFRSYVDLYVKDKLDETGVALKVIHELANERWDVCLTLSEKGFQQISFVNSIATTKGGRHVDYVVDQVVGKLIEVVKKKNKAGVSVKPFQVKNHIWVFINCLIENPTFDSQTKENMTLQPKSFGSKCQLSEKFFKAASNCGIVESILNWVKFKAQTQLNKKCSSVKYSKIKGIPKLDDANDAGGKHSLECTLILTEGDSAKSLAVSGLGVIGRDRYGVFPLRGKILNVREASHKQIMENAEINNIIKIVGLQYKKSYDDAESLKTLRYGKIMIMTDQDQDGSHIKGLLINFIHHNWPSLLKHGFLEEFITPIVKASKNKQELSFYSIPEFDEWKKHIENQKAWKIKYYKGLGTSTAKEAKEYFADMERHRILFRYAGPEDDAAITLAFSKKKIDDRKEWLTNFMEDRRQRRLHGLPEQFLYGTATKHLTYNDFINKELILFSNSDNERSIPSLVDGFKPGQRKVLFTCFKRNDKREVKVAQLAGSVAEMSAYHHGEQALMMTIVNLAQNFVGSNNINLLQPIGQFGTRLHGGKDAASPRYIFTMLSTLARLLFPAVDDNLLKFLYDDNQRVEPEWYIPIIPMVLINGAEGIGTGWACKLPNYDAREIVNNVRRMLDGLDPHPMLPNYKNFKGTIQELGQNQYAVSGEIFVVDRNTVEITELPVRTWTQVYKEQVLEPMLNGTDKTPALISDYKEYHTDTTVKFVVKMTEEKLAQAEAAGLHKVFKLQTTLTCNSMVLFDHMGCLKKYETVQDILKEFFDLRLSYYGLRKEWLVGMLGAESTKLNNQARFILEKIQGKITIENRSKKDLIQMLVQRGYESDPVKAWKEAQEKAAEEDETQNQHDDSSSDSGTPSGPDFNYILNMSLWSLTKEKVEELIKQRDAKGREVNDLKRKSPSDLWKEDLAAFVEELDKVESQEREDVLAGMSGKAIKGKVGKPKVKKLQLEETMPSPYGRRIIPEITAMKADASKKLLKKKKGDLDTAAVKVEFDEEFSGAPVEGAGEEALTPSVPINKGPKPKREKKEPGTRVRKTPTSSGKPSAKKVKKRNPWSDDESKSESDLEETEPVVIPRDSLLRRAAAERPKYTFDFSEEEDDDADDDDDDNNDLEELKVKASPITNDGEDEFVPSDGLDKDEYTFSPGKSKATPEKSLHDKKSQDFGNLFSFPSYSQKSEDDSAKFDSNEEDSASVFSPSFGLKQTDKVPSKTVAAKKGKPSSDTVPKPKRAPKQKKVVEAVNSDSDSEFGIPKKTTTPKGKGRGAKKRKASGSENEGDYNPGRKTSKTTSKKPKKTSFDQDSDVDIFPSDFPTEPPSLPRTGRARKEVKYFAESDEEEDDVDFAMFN

Sequence of TOP2A (topoisomerase IIα) (P11388 whole entry): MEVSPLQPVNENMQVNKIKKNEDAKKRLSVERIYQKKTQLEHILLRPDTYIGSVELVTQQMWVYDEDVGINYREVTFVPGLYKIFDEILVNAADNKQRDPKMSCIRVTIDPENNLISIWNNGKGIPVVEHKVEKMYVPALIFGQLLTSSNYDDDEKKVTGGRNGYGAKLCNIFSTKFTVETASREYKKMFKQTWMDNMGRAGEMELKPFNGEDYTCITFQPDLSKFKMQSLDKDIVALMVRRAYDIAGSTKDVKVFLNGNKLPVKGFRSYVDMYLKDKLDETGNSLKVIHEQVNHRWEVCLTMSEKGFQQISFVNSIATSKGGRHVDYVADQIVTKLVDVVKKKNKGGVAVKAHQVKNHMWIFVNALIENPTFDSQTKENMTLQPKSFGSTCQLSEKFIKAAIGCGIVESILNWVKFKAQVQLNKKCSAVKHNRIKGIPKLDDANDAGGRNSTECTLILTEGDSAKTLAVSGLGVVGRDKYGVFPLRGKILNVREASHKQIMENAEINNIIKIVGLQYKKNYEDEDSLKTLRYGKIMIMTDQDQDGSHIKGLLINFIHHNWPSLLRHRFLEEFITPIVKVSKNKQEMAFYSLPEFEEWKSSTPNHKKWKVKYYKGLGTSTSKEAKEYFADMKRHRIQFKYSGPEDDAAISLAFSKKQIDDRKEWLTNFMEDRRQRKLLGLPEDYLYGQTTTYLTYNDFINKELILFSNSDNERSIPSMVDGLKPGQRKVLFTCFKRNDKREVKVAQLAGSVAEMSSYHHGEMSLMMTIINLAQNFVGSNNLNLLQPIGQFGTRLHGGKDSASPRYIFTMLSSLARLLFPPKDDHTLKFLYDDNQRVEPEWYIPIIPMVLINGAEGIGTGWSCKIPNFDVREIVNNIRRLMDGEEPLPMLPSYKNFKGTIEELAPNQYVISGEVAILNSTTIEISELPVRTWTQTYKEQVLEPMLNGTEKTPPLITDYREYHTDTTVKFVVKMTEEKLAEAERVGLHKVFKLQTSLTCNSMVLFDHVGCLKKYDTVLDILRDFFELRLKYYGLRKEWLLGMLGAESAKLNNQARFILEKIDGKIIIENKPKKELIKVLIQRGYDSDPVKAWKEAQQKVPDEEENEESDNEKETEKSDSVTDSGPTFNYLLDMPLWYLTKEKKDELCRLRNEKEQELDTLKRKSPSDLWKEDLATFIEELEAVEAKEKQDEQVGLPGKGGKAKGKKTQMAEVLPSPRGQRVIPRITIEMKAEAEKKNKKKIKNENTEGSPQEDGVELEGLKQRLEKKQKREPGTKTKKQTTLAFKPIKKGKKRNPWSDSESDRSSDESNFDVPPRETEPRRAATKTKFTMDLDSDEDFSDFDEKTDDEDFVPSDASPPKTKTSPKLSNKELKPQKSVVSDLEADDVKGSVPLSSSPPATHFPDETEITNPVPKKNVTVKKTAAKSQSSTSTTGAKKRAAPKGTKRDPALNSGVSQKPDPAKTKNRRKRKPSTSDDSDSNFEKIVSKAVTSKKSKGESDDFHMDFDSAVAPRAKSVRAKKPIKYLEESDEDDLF

IC50 [1] [µM] | IC50 [2] [µM] | SMILES
~60 | ~60 | C[C@@H](CN1CC(=O)NC(=O)C1)N1CC(=O)NC(=O)C1 [DEX, dexrazoxane]
~130 | ~130 | CC(Oc1ccc(Oc2cnc3ccc(Cl)cc3n2)cc1)C(=O)O (racemic) [XK469, 2(R)-[4-(7-chloro-2-quinoxalinyl)oxyphenoxy]propionic acid]

From article PMC10964739 (Toxicological Sciences, 2024)
